# “Also recorded” adds a separate entry of the source.
# Tests used:
# SARS-CoV PL^pro [1] = target: T1, SARS-CoV PL^pro (Severe acute respiratory syndrome coronavirus, UniProt P0C6U8); format: biochemical
# SARS-CoV PL^pro [2] = target: T1, SARS-CoV PL^pro; format: biochemical; remark: listed apart in the source
# Papain = target: T2, Papain (Carica papaya, UniProt P00784); assay: biochemical
# T2 sequence (P00784 134-345): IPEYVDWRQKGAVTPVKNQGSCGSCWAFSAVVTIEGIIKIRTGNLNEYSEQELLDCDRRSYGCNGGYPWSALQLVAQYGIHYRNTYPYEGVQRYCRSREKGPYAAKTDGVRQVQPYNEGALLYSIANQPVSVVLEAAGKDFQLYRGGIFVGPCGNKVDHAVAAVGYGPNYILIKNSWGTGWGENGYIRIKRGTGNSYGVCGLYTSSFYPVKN
# Chymotrypsin = Chymotrypsin (Bos taurus, UniProt P00766); assay: biochemical
# [3] = target: SARS-CoV PL^pro deubiquitination (DUB) activity (Severe acute respiratory syndrome coronavirus, UniProt P0C6U8); assay: biochemical
# SARS-CoV 3CL^pro = SARS-CoV 3CL^pro (Severe acute respiratory syndrome coronavirus, UniProt P0C6U8); format: biochemical; conditions: at 200 μM
# HIV-1 protease = HIV-1 protease (Human immunodeficiency virus type 1 group M subtype B, UniProt P04585); assay: biochemical
Compound,k5 (SARS-CoV PL^pro [1]) [min⁻¹],k6 (SARS-CoV PL^pro [1]) [min⁻¹],IC50 (Papain) [µM],also measured
"C[C@H]1COC2=C1C(=O)C(=O)c1c2ccc2c1CCCC2(C)C [Compound 4, Cryptotanshinone]",0.08127 ± 0.001,0.001406 ± 0.0001,,slow-binding inhibition mechanism on PL^pro (SARS-CoV PL^pro [1]): slow-binding inhibition kinetics; type of inhibition toward PL^pro (SARS-CoV PL^pro [2]): Noncompetitive inhibition
"Cc1coc2c1C(=O)C(=O)c1c-2ccc2c(C)cccc12 [Compound 5, Tanshinone I]",0.03015 ± 0.003,0.003349 ± 0.0003,> 200,
"Cc1cccc2c3c(ccc12)C1=C(C(=O)C3=O)[C@@H](C)CO1 [Compound 6, Dihydrotanshinone I]",0.03203 ± 0.001,0.003175 ± 0.0003,> 200,IC50 (Chymotrypsin): > 200 µM
"COC(=O)[C@@]1(C)CCCc2c1ccc1c2C(=O)C(=O)c2c(C)coc2-1 [Compound 3, Methyl tanshinonate]",0.0193 ± 0.001,0.002657 ± 0.0002,> 200,IC50 [3]: > 200 µM
Salvianolic acid B,,,,inhibition of 3CL^pro (SARS-CoV 3CL^pro): 30%
"CC(C)C1=Cc2ccc3c(c2C(=O)C1=O)CCCC3(C)C [Compound 7, Rosmariquinone]",,,,k3 (SARS-CoV PL^pro [1]): 5 ± 0.83 M⁻¹ s⁻¹; k4 (SARS-CoV PL^pro [1]): 0.006483 ± 0.0004 min⁻¹; slow-binding inhibition mechanism on PL^pro (SARS-CoV PL^pro [1]): simple reversible slow-binding inhibition; also recorded: simple slow-binding mode; also recorded: simple reversible slow-binding inhibitor; type of inhibition toward PL^pro (SARS-CoV PL^pro [2]): mixed type inhibition
"Cc1coc2c1C(=O)C(=O)c1c-2ccc2c1CCCC2(C)CO (stereo not shown) [Compound 2, Tanshinone IIB]",0.02503 ± 0.003,0.004704 ± 0.0002,> 200,IC50 (Chymotrypsin): > 200 µM; IC50 (HIV-1 protease): > 200 µM
"Cc1coc2c1C(=O)C(=O)c1c-2ccc2c1CCCC2(C)C [Compound 1, Tanshinone IIA]",0.04825 ± 0.006,0.008485 ± 0.0001,,IC50 [3]: > 200 µM

# Source: PMC7127169 (Bioorganic & Medicinal Chemistry, 2012)
